Measured values from patent US11992490B2, “Use of JAK1 inhibitors for the treatment of cutaneous lupus erythematosus and Lichen planus (LP)” (Incyte Corporation, priority 2019, dated 2024).

Legend:
[1] = biological target: human JAK2 (a.a. 828-1132) (Homo sapiens (Human), UniProt O60674); experiment: In vitro JAK kinase assay (HTRF), JAK2; assay type: biochemical; settings: JAK2/JAK1 IC50 ratio, 1 mM ATP
[2] = biological target: human JAK1 (a.a. 837-1142) (Homo sapiens, UniProt P23458); experiment: In vitro JAK kinase assay (HTRF), JAK1; assay type: biochemical; settings: 1 mM ATP

Chain of human JAK2 (a.a. 828-1132) (O60674 828-1132): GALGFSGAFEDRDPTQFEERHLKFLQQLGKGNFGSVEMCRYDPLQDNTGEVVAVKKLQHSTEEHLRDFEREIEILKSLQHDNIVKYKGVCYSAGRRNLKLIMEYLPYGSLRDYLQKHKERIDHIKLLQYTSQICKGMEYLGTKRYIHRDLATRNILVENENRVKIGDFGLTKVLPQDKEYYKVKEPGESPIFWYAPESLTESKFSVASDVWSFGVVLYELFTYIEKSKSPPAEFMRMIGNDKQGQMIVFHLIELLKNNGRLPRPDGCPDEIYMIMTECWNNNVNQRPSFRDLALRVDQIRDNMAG

| SMILES | JAK2/JAK1 [1] | IC50 [2] [nM] |
| --- | --- | --- |
| N#CCC(C1CCN(c2cccc(Cl)n2)C1)n1cc(-c2ncnc3[nH]ccc23)cn1 (single isomer, unassigned) [Compound 6, 3-[1-(6-chloropyridin-2-yl)pyrrolidin-3-yl]-3-[4-(7H-pyrrolo[2,3-d]pyrimidin-4-yl)-1H-pyrazol-1-yl]propanenitrile] | >10 | < 10 |
| N#CCC1(n2cc(-c3ncnc4[nH]ccc34)cn2)CN(C2CCN(C(=O)Nc3ccc(F)cc3C(F)(F)F)CC2)C1 [Compound 2, 4-{3-(Cyanomethyl)-3-[4-(7H-pyrrolo[2,3-d]pyrimidin-4-yl)-1H-pyrazol-1-yl]azetidin-1-yl}-N-[4-fluoro-2-(trifluoromethyl)phenyl]piperidine-1-carboxamide] | >10 | < 10 |
| N#CCC1(n2cc(-c3ncnc4[nH]ccc34)cn2)CN(C2CCN(C(=O)c3ccnc(C(F)(F)F)n3)CC2)C1 [Compound 3, [3-[4-(7H-pyrrolo[2,3-d]pyrimidin-4-yl)-1H-pyrazol-1-yl]-1-(1-{[2-(trifluoromethyl)pyrimidin-4-yl]carbonyl}piperidin-4-yl)azetidin-3-yl]acetonitrile] | >10 | < 10 |
| C[C@@H](O)c1nc2cnc3ccsc3c2n1[C@H]1CC[C@H](CC#N)OC1 [Compound 5, ((2R,5S)-5-{2-[(1R)-1-hydroxyethyl]-1H-imidazo[4,5-d]thieno[3,2-b]pyridin-1-yl}tetrahydro-2H-pyran-2-yl)acetonitrile] | >10 | < 100 |
| N#CCC(C1CCN(c2nc3cccnc3o2)C1)n1cc(-c2ncnc3[nH]ccc23)cn1 (stereo not shown) [Compound 7, 3-(1-[1,3]oxazolo[5,4-b]pyridin-2-ylpyrrolidin-3-yl)-3-[4-(7H-pyrrolo[2,3-d]pyrimidin-4-yl)-1H-pyrazol-1-yl]propanenitrile] | >10 | < 10 |
| N#CCC(CN1CCN(C(=O)c2ccc(C#N)cc2F)CC1)n1cc(-c2ncnc3[nH]ccc23)cn1 (stereo not shown) [Compound 8, 4-[(4-{3-cyano-2-[4-(7H-pyrrolo[2,3-d]pyrimidin-4-yl)-1H-pyrazol-1-yl]propyl}piperazin-1-yl)carbonyl]-3-fluorobenzonitrile] | >10 | < 10 |
| N#CCC(CN1CCN(C(=O)c2ccc(C#N)cc2F)CC1)n1ccc(-c2ncnc3[nH]ccc23)c1 (stereo not shown) [Compound 9, 4-[(4-{3-cyano-2-[3-(7H-pyrrolo[2,3-d]pyrimidin-4-yl)-1H-pyrrol-1-yl]propyl}piperazin-1-yl)carbonyl]-3-fluorobenzonitrile] | >10 | < 10 |
| N#CC[C@]1(n2cc(-c3ncnc4[nH]ccc34)cn2)C[C@H](N2CCN(C(=O)c3ccnc(C(F)(F)F)n3)CC2)C1 [Compound 10, [trans-1-[4-(7H-pyrrolo[2,3-d]pyrimidin-4-yl)-1H-pyrazol-1-yl]-3-(4-{[2-(trifluoromethyl)pyrimidin-4-yl]carbonyl}piperazin-1-yl)cyclobutyl]acetonitrile] | >10 | < 10 |
| N#CC[C@]1(n2cc(-c3ncnc4[nH]ccc34)cn2)C[C@H](N2CCC(Oc3cc(CN4CC(O)C4)cc(C(F)(F)F)n3)CC2)C1 [Compound 11, {trans-3-(4-{[4-[(3-hydroxyazetidin-1-yl)methyl]-6-(trifluoromethyl)pyridin-2-yl]oxy}piperidin-1-yl)-1-[4-(7H-pyrrolo[2,3-d]pyrimidin-4-yl)-1H-pyrazol-1-yl]cyclobutyl}acetonitrile] | >10 | < 10 |
| N#CC[C@]1(n2cc(-c3ncnc4[nH]ccc34)cn2)C[C@H](N2CCC(Oc3cc(CN4CCC[C@H]4CO)cc(C(F)(F)F)n3)CC2)C1 [Compound 12, {trans-3-(4-{[4-{[(2S)-2-(hydroxymethyl)pyrrolidin-1-yl]methyl}-6-(trifluoromethyl)pyridin-2-yl]oxy}piperidin-1-yl)-1-[4-(7H-pyrrolo[2,3-d]pyrimidin-4-yl)-1H-pyrazol-1-yl]cyclobutyl}acetonitrile] | >10 | < 10 |
| N#CC[C@]1(n2cc(-c3ncnc4[nH]ccc34)cn2)C[C@H](N2CCC(Oc3cc(CN4CCC[C@@H]4CO)cc(C(F)(F)F)n3)CC2)C1 [Compound 13, {trans-3-(4-{[4-{[(2R)-2-(hydroxymethyl)pyrrolidin-1-yl]methyl}-6-(trifluoromethyl)pyridin-2-yl]oxy}piperidin-1-yl)-1-[4-(7H-pyrrolo[2,3-d]pyrimidin-4-yl)-1H-pyrazol-1-yl]cyclobutyl}acetonitrile] | >10 | < 10 |
| C[C@H](NC(=O)c1cc(F)c(N2CC(CC#N)(n3cc(-c4ncnc5[nH]ccc45)cn3)C2)cc1F)C(F)(F)F [Compound 16, 4-{3-(cyanomethyl)-3-[4-(7H-pyrrolo[2,3-d]pyrimidin-4-yl)-1H-pyrazol-1-yl]azetidin-1-yl}-2,5-difluoro-N-[(1S)-2,2,2-trifluoro-1-methylethyl]benzamide] | >10 | < 10 |
| N#CCC1(n2cc(-c3ncnc4[nH]ccc34)cn2)CN([C@H]2CC[C@@H](Oc3cc(CCO)nc(C(F)(F)F)n3)CC2)C1 [Compound 18, {1-(cis-4-{[6-(2-hydroxyethyl)-2-(trifluoromethyl)pyrimidin-4-yl]oxy}cyclohexyl)-3-[4-(7H-pyrrolo[2,3-d]pyrimidin-4-yl)-1H-pyrazol-1-yl]azetidin-3-yl}acetonitrile] | >10 | < 10 |
| CCNCc1cc(O[C@H]2CC[C@@H](N3CC(CC#N)(n4cc(-c5ncnc6[nH]ccc56)cn4)C3)CC2)nc(C(F)(F)F)c1 [Compound 19, {1-(cis-4-{[4-[(ethylamino)methyl]-6-(trifluoromethyl)pyridin-2-yl]oxy}cyclohexyl)-3-[4-(7H-pyrrolo[2,3-d]pyrimidin-4-yl)-1H-pyrazol-1-yl]azetidin-3-yl}acetonitrile] | >10 | < 10 |
| CC(C)(O)c1cc(O[C@H]2CC[C@@H](N3CC(CC#N)(n4cc(-c5ncnc6[nH]ccc56)cn4)C3)CC2)nc(C(F)(F)F)c1 [Compound 20, {1-(cis-4-{[4-(1-hydroxy-1-methylethyl)-6-(trifluoromethyl)pyridin-2-yl]oxy}cyclohexyl)-3-[4-(7H-pyrrolo[2,3-d]pyrimidin-4-yl)-1H-pyrazol-1-yl]azetidin-3-yl}acetonitrile] | >10 | < 10 |
| N#CCC1(n2cc(-c3ncnc4[nH]ccc34)cn2)CN([C@H]2CC[C@@H](Oc3cc(CN4CC[C@@H](O)C4)cc(C(F)(F)F)n3)CC2)C1 [Compound 21, {1-(cis-4-{[4-{[(3R)-3-hydroxypyrrolidin-1-yl]methyl}-6-(trifluoromethyl)pyridin-2-yl]oxy}cyclohexyl)-3-[4-(7H-pyrrolo[2,3-d]pyrimidin-4-yl)-1H-pyrazol-1-yl]azetidin-3-yl}acetonitrile] | >10 | < 10 |
| N#CCC1(n2cc(-c3ncnc4[nH]ccc34)cn2)CN([C@H]2CC[C@@H](Oc3cc(CN4CC[C@H](O)C4)cc(C(F)(F)F)n3)CC2)C1 [Compound 22, {1-(cis-4-{[4-{[(3S)-3-hydroxypyrrolidin-1-yl]methyl}-6-(trifluoromethyl)pyridin-2-yl]oxy}cyclohexyl)-3-[4-(7H-pyrrolo[2,3-d]pyrimidin-4-yl)-1H-pyrazol-1-yl]azetidin-3-yl}acetonitrile] | >10 | < 10 |
